Legend:
[1] = molecular target: T1, wt human LRRK2, catalytic site (Homo sapiens, UniProt Q5S007); experiment: TR-FRET LanthaScreen Tb Kinase Activity Assay, LRRK2 kinase inhibition; assay type: biochemical; conditions: 2 nM wt human LRRK2, 400 nM peptide, 38 μM ATP
T1 construct: wt human LRRK2, catalytic site, catalytic site (ThermoFisher/USA); purchased ThermoFisher
Summary of the method: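 TR-FRET LanthaScreen format: 2 nM wt human LRRK2 catalytic domain with 400 nM fluorescein-ERM (LRRKtide) and 38 μM ATP in Kinase Buffer A, after 15 min compound preincubation. Reaction 120 min at RT, then EDTA plus Tb-anti-pLRRKtide antibody for 60 min; emission ratios analysed per kit protocol.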

[2] = Brain penetration (Kp,uu) in CD-1 mice, with plasma and brain tissue binding by equilibrium dialysis; assay type: in vivo; conditions: mouse, brain and plasma (unbound), male CD-1 mice, single IV bolus 1 mg/kg
Procedure: The compounds disclosed herein were tested on CD-1 mice for brain penetration (Kp, uu) according to the following procedures.
Nine male CD-1 mice were administered TEST COMPOUND by single intravenous bolus administration at 1 mg/kg. The vehicle used for IV study was 5% DMSO, 5% solutol, 20% PEG300 and 70% water. The detailed dosing and sampling regimens are described in the following tables.
1.0 mg of test compound was accurately weighed into a glass vial, and slowly added with 104 μL of DMSO and vortexed for 1 min. Then 104 μL of solutol was added and vortexed for 1 min. Then 415 μL of PEG300 was added and vortexed for 1 min. Then 1000 μL of water was added and vortexed for 1 min. Finally, 451 μL of water was added and vortexed for 1 min to get a clear solution.
The body weights were in the range from 28.81 to 31.25 g for males on the first dosing day. All animals received a single intravenous bolus administration of TEST COMPOUND from the tail vein.
Each blood collection (about 0.06 mL per time point) was performed from saphenous vein of each animal into pre-chilled commercial K2-EDTA tubes as anti-coagulant and placed on wet ice until centrifugation.
Plasma samples were then prepared by centrifuging the blood samples at approximately 4° C., 3200×g for 10 minutes. All plasma samples were then quickly frozen over dry ice and kept at −60° C. or lower until LC-MS/MS analysis.
Brain tissue was homogenized using homogenizing buffer (15 mM PBS (pH7.4): MeOH=2:1) at the ratio of 1:9 (1 g tissue with 9 mL buffer, the dilution ratio is 10). The tissue homogenate was kept at −60° C. or lower until LC-MS/MS analysis.
The concentrations of TEST COMPOUND in plasma and brain were determined by using an LC-MS/MS method.
The plasma and brain concentration of TEST COMPOUND in study animals was subjected to a non-compartmental pharmacokinetic analysis by using the Phoenix WinNonlin software program (version 6.3 or above, Pharsight). The linear/log trapezoidal rule was applied in obtaining the PK parameters.
Individual plasma and brain concentration values that were below the lower limit of quantitation (LLOQ) were excluded from the PK parameter calculation. The nominal dose levels and nominal sampling times were used in the calculation of all pharmacokinetic parameters.
Mouse Kp, uu=(% free in mouse brain*concentration in mouse brain)/(% free in mouse plasma*concentration in mouse plasma)
The dialysis apparatus was assembled according to the manufacturer's instruction. Each Cell was filled with 120 μL of spiked plasma sample and dialyzed against equal volume of dialysis buffer (PBS). The assay was performed in duplicate. The dialysis plates were sealed and incubated in an incubator at 37° C. with 5% CO2 and rotated at 100 rpm for 6 hours. At the end of incubation, the seals were removed and 50 μL of samples from both buffer and plasma chambers were transferred to a 96-well plate.
All calculations were carried out using Microsoft Excel. The concentrations of test compound and control compound in the buffer and plasma chambers were determined from peak area ratios (PAR) of analyte to internal standard. Protein binding (% unbound and % bound) and recovery (% recovery) of test and control compounds was calculated as follows:
• 1. Thawing of the frozen brain (stored at −80° C.) • Frozen brain tissue was thawed at room temperature in a bath. Only brain tissue was used that was thawed no more than once. • 2. Preparation of brain tissue homogenate • Brain tissue homogenate was prepared by diluting one quantity (g) of the whole brain tissue with three volumes (mL) of buffer (PBS, pH 7.4) and homogenizing the mixture using a tissue homogenizer. Brain tissue homogenate was frozen at −80° C. for later use/comparison. • 3. Preparation of working solutions • The working solutions of test compound and the control compound propranolol were prepared in dimethyl sulfoxide (DMSO) at the concentration of 200 μM. […]

Caco-2 cells = experiment: Caco-2 bidirectional permeability; assay type: in vitro ADME; conditions: for Caco-2 A2B (10^−6 cm/s): A to B; for Caco-2 A2B (10^−6 cm/s) / Caco-2 B2A (10^−6 cm/s): HBSS pH 7.4, 2 hours; for Caco-2 B2A (10^−6 cm/s): B to A; for Caco-2 ER: Efflux Ratio=Papp (BA)/Papp (AB)
Summary of the method: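 Caco-2 monolayers grown 21–28 days on PET inserts were run in duplicate in HBSS with 10 mM HEPES, pH 7.4. Compound was tested in both directions at […] for 2 h at 37 °C and quantified by LC-MS/MS. Papp, % recovery and efflux ratio (B-A/A-B) were calculated, with lucifer yellow checking monolayer integrity.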

[3] = Human liver microsomal clearance (hLM Cl); assay type: in vitro ADME; conditions: cells marked *

T1 sequence (Q5S007 1879-2138 limits assumed): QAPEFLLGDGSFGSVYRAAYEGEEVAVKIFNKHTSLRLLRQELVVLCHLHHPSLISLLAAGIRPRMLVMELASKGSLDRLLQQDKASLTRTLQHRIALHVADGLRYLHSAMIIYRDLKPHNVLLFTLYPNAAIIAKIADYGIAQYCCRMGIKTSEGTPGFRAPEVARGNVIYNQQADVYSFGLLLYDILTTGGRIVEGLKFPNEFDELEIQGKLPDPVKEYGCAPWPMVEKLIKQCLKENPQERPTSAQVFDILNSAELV

IC50 [1] [nM] | Kp uu [2] | Caco-2 A2B (10^−6 cm/s) (Caco-2 cells) | Caco-2 B2A (10^−6 cm/s) (Caco-2 cells) | Caco-2 ER (Caco-2 cells) | hLM Cl (mL/min/kg) [3] | Compound
2 to 100 | 0.2 to 0.4 | H (H (High permeability)”: A2B (B2A)>5) | H (H (High permeability)”: A2B (B2A)>5) | N (N (Non-substrate)”: ER<2.5) | L* (L (Low C1)”: Hep Cl<6.3 mL/min/kg) | [2H]C([2H])([2H])c1n[nH]c2c1N=C(c1c(F)cccc1F)Nc1ccc(N3CCO[C@H](C)C3)cc1-2 [Example 11, (2R)-4-[5-(2,6-difluorophenyl)-3-(trideuteriomethyl)-1,6-dihydropyrazolo[4,3-d][1,3]benzodiazepin-9-yl]-2-methyl-morpholine]
< 2 | 0.2 to 0.4 | H (H (High permeability)”: A2B (B2A)>5) | H (H (High permeability)”: A2B (B2A)>5) | N (N (Non-substrate)”: ER<2.5) | L* (L (Low C1)”: Hep Cl<6.3 mL/min/kg) | Cc1n[nH]c2c1N=C(c1c(F)cccc1F)Nc1ccc(N3CCN(C)C(C(F)(F)F)C3)cc1-2 (stereo not drawn) [Example 6, 5-(2,6-difluorophenyl)-3-methyl-9-[4-methyl-3-(trifluoromethyl)piperazin-1-yl]-1,6-dihydropyrazolo[4,3-d][1,3]benzodiazepine]
< 2 | 0.2 to 0.4 | H (H (High permeability)”: A2B (B2A)>5) | H (H (High permeability)”: A2B (B2A)>5) | N (N (Non-substrate)”: ER<2.5) | L* (L (Low C1)”: Hep Cl<6.3 mL/min/kg) | Cc1n[nH]c2c1N=C(c1c(F)cccc1F)Nc1c-2cc(N2CCN(CCF)[C@@H](C)C2)nc1C [Example 21, (S)-5-(2,6-difluorophenyl)-9-(4-(2-fluoroethyl)-3-methylpiperazin-1-yl)-3,7-dimethyl-1,6-dihydropyrazolo[4,3-d]pyrido[4,3-f][1,3]diazepine]

Compound | IC50 [1] [nM] | Kp uu [2] | Caco-2 A2B (10^−6 cm/s) (Caco-2 cells) | Caco-2 B2A (10^−6 cm/s) (Caco-2 cells) | Caco-2 ER (Caco-2 cells) | hLM Cl (mL/min/kg) [3]
Cc1n[nH]c2c1N=C(c1c(F)cccc1F)Nc1c-2cc(N2CCN(C)[C@@H](C(F)(F)F)C2)nc1C (single isomer, unassigned) [Example 37] | < 2 | 0.2 to 0.4 | H (H (High permeability)”: A2B (B2A)>5) | H (H (High permeability)”: A2B (B2A)>5) | N (N (Non-substrate)”: ER<2.5) | I* (I (Intermediate C1)”: 6.3 mL/min/kg≤Hep Cl≤14.7 mL/min/kg)
Cc1n[nH]c2c1N=C(c1c(F)cccc1F)Nc1c-2cc(N2CCC[C@@]3(CCOC3)C2)nc1C (single isomer, unassigned) [Example 49] | < 2 | 0.2 to 0.4 | H (H (High permeability)”: A2B (B2A)>5) | H (H (High permeability)”: A2B (B2A)>5) | N (N (Non-substrate)”: ER<2.5) | I* (I (Intermediate C1)”: 6.3 mL/min/kg≤Hep Cl≤14.7 mL/min/kg)

— US20240208972A1, “LRRK2 INHIBITORS AND USES THEREOF” (NEURON23, INC., priority 2022, published 2024)
